Assay results: patent US8093296B2 (Mutual Pharmaceutical Company, Inc., priority 2008, dated 2012)
“Also recorded” adds a separate entry of the source. Read-outs that look alike come from different tables or passages of the source.

How the values were obtained:
[1] = Pharmacokinetic study in healthy adults of single vs. multiple oral doses of colchicine tablets (Example 1); assay type: in vivo, human; conditions: for concentration at 25 day: 0.6 mg;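 as to all read-outs here: each subject received both dosing periods, single and repeated oral dosing, with a 14-day washout interval between periods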
Description: Subjects received a light breakfast served 60 minutes following dose administration in the morning and the evening dose was administered 90 minutes after an evening meal on Days 15 through 24 only. […] Study periods were separated by a 14-day washout. Following the single dose and the last dose of the multiple dose regimen (beginning on the mornings of Day 1 and Day 25, respectively), blood samples were collected (6 mL each) from each subject within 1 hour prior to dosing and after dose administration at study hours 0.5, 1, 1.5, 2, 3, 4, 6, 8, 10, 12, and 24 (while confined) and 36, 48, 72, and 96 (on an outpatient basis).

[2] = system: CYP2C9/19; conditions: Dvorak 2000, preliminary; 1 and 10 μM colchicine; cited from earlier work
[3] = cited from earlier work
[4] = colchicine administration; cited from earlier work
[5] = Colchicine elimination half-life after multiple oral doses in young healthy volunteers; assay type: in vivo; conditions: human, plasma; multiple oral doses 0.6 mg twice daily, young healthy volunteers (mean age 25 to 28 years)
[6] = clinical; conditions: human, in vivo, 0.6 mg
Description: A single-center, open-label, one sequence, two-period study was carried out in 23 healthy subjects. […] After completing a 21-day washout period, all subjects received 250 mg of clarithromycin administered twice daily for 7 days (Days 22 through 29), a sufficient dose and duration to inhibit CYP3A4 and Pgp.

[7] = colchicine 0.6 mg twice a day, two randomized clinical trials, patients initiating urate lowering therapy; cited from earlier work
[8] = co-administration of clarithromycin vs colchicine alone
[9] = colchicine 0.6 mg with steady-state clarithromycin vs colchicine alone
[10] = mean, Day 1, single-dose colchicine 0.6 mg alone, healthy adults n=23
[11] = mean, multiple (b.i.d.) oral doses 0.6 mg x 10 days, Day 25, healthy adults N=13
[12] = mean, single oral dose 0.6 mg, healthy adults N=13
[13] = median, multiple (b.i.d.) oral doses 0.6 mg x 10 days, Day 25, healthy adults N=13
[14] = median, single oral dose 0.6 mg, healthy adults N=13

`COc1cc2c(c(OC)c1O)-c1ccc(OC)c(=O)cc1[C@@H](NC(C)=O)CC2` [2-DMC, 2-O-demethylcolchicine] gave a metabolite plasma concentrations ([1]; after colchicine 0.6 mg single and multiple doses, LOQ 0.2 ng/mL) of less than 0.2 ng/mL.
In the case of `COc1c(O)cc2c(c1OC)-c1ccc(OC)c(=O)cc1[C@@H](NC(C)=O)CC2` [3-DMC, 3-O-demethylcolchciine], the “detectable metabolite plasma concentration” value ([1]; after colchicine 0.6 mg single and multiple doses, 13 subjects) is listed as “only one sample from 1 subject (of 13 subjects) had a detectable” and the “CYP2C9/19 protein levels (immunoblotting)” value [2] is listed as “decrease”.
For `CC[C@H]1OC(=O)[C@H](C)[C@@H](O[C@H]2C[C@@](C)(OC)[C@@H](O)[C@H](C)O2)[C@H](C)[C@@H](O[C@@H]2O[C@H](C)C[C@H](N(C)C)[C@H]2O)[C@](C)(OC)C[C@@H](C)C(=O)[C@H](C)[C@@H](O)[C@]1(C)O` [Clarithromycin], the “oral dose excreted in feces” value ([3]; in vivo, po) is given as “About 40%”, the “dose excreted as unchanged drug in urine” value ([3]; oral 250 mg every 12 hours) is given as “Approximately 20%” and the “dose excreted as unchanged drug in urine” value ([3]; oral 500 mg every 12 hours) is given as roughly 30%. The absolute bioavailability ([3]; oral administration) was “approximately 50%” and the “increase of peak concentration by food” value ([3]; with food) was “about 24%”.
For `COc1cc2c(c(OC)c1OC)-c1ccc(OC)c(=O)cc1[C@@H](NC(C)=O)CC2` [Colchicine, (−)-N-[(7S,12aS)-1,2,3,10-tetramethoxy-9-oxo-5,6,7,9-tetrahydrobenzo[a]heptalen-7-yl]-acetamide], the “FMF patients that do not show a beneficial response” value [4] is given as 5-10%, the half-life [5] is given as 1600 to 1870 min and the “decrease in apparent clearance (CL/F) of colchicine” value [8] is given as 75%. The “increase in plasma elimination half-life (t1/2) of colchicine” value [8] was 233%, the “increase in mean colchicine AUC0-t” value [9] was 250% and the “increase in mean colchicine Cmax” value [9] was 167%. The CL/F [10] was 46.8 L/h, the Cmax [10] was 3 ng/mL and the Ke [10] was 0.132 h⁻¹. For the same molecule, the t1/2 [10] was 9 h, the “attainment of steady state (trough plasma concentrations)” value ([1]; 0.6 mg b.i.d., most subjects) was “by approximately the eighth day of dosing” and the “plasma concentrations 24 hours post-dose” value ([1]; after a single 0.6 mg dose) was “no longer quantifiable 24 hours post-dose in all but 1 subject; also recorded: not detectable by 24 hours post-dose”. The elimination half-life ([1]; calculated following a single oral dose, stated not an accurate estimate) was “approximately 5 hours”, the concentration at 25 day ([1]; human, in vivo, Day 25, read-out: mean Cmin concentration) was 0.907 ng/mL and the concentration at 25 day ([1]; human, in vivo, po, mean, multiple (b.i.d.) oral doses 0.6 mg x 10 days, Day 25, healthy adults N=13, read-out: Cmin) was 0.907 ng/mL. It also gave a concentration at 25 day ([1]; human, in vivo, po, median, multiple (b.i.d.) oral doses 0.6 mg x 10 days, Day 25, healthy adults N=13, read-out: Cave) of 1.19 ng/mL, a concentration at 25 day ([1]; human, in vivo, po, median, multiple (b.i.d.) oral doses 0.6 mg x 10 days, Day 25, healthy adults N=13, read-out: Cmin) of 0.903 ng/mL and a Vd/F ([1]; human, in vivo, mean (% CV), 0.6-mg single dose, Day 1, N=13) of 540 L. For the same molecule, the AUC0-τ [1, 11] was 29.05623 ng·h/mL, the Cave [1, 11] was 1210.68 pg/mL and the Kel [1, 11] was 0.03 h⁻¹. It also gave an AUC0-inf [1, 12] of 12.2819 ng·h/mL, an AUC0-t [1, 12] of 10.50854 ng·h/mL and a Cmax [1, 12] of 2470.77 pg/mL. For the same molecule, the Kel [1, 12] was 0.1829 h⁻¹, the AUC0-inf [1, 13] was 54.11343 ng·h/mL and the AUC0-τ [1, 13] was 28.45215 ng·h/mL. For the same molecule, the Kel [1, 13] was 0.03 h⁻¹, the T1/2 [1, 13] was 26.51 h and the AUC0-t [1, 14] was 10.5609 ng·h/mL. The Kel [1, 14] was 0.1992 h⁻¹, the “secondary colchicine peak in individual subject data” value ([1]; single dose or multiple dosing) was “no subject experienced a secondary colchicine peak” and the “Cmin prior to morning dose higher than Cmin prior to evening dose” value ([1]; steady state, Day 23 and Day 24) was “approximately 12%”. The “CYP2C9/19 protein levels (immunoblotting)” value [2] was “appeared to decrease”, the AUC0-inf [6] was 16 ng·h/mL and the AUC0-t [6] was 12 ng·h/mL. The Vd/F [6] was 432 L and the “frequency of gout flares” value [7] was “decreased the frequency of gout flares”.
